Holding throughout (type): physicochemical
Series [1] in a line: Water activity experiments in MeOH/water (relative stability of hydrate Pattern A and hydrate Pattern B). Conditions: methanol/water. The method, then:
The relative stability of the hydrate Pattern A and the hydrate Pattern B was investigated using water activity experiments in MeOH/water systems. About 5 mg of (S)-4-((2-methoxyethyl)(4-(5,6,7,8-tetrahydro-1,8-naphthyridin-2-yl)butyl)amino)-2-(quinazolin-4-ylamino)butanoic acid L-tartaric acid cocrystal Pattern A and 5 mg of (S)-4-((2-methoxyethyl)(4-(5,6,7,8-tetrahydro-1,8-naphthyridin-2-yl)butyl)amino)-2-(quinazolin-4-ylamino)butanoic acid L-tartaric acid cocrystal Pattern B were added to 0.1-0.5 mL saturated solutions of the methanol/water system. Obtained suspensions were stirred at 5° C., 25° C. and 50° C. for up to 21 days, respectively. Solid parts (wet cakes) were isolated by centrifugation filtration and investigated by XRPD.

Series [2] is described as follows: Equilibration of Pattern C suspension in IPA/water at 5° C. As to conditions: IPA/water mixture, equilibration at 5° C., after 3 days. The method, then: Method 2: (S)-4-((2-methoxyethyl)(4-(5,6,7,8-tetrahydro-1,8-naphthyridin-2-yl)butyl)amino)-2-(quinazolin-4-ylamino)butanoic acid L-tartaric acid cocrystal Pattern C was prepared using the following procedure. 200 mg of (S)-4-((2-methoxyethyl)(4-(5,6,7,8-tetrahydro-1,8-naphthyridin-2-yl)butyl)amino)-2-(quinazolin-4-ylamino)butanoic acid L-tartaric acid cocrystal Pattern A (see Example 1) was dissolved in 1.8 mL of IPA/water (7:3, v:v) at 50° C. The obtained thin suspension was filtered through a 0.45 μm syringe membrane filter to obtain a clear solution. The clear solution was cooled to 5° C. at 0.1° C./min after stirring at 50° C. for about 30 min. After stirred at 5° C. for about 2 days, a suspension was obtained. Solids were collected by centrifugation and investigated by XRPD. A low crystallinity Pattern C was obtained.
The suspension was kept stirring at 5° C. for another 3 days. Solids were collected by centrifugation and investigated by XRPD. A low crystalline Pattern B was obtained.

Series [3] in a line: Solubility at 37° C. in aqueous and biorelevant media. As to conditions: for Solubility (mg/ mL) 2 h / Solubility (mg/ mL) 24 h: target 250 mg/mL (in free form). How it is done:
To prepare the samples of (S)-4-((2-methoxyethyl)(4-(5,6,7,8-tetrahydro-1,8-naphthyridin-2-yl)butyl)amino)-2-(quinazolin-4-ylamino)butanoic acid L-tartaric acid cocrystal Pattern A, 80.6 mg was weighed into a 2 mL glass vial. Next, 0.18 mL of solubility medium was added. The salt amount used is equivalent to 45 mg of the amorphous free form. Obtained suspensions/solutions were stirred at 37° C. at 400 rpm and sampled at 2 h and at 24 h. The samples were centrifuged at 37° C. at 14,000 rpm for 5 min. Supernatants were analyzed by HPLC and pH meter for solubility and pH value, respectively. […]

The nature of series [4]: Bulk stability of solid under temperature/humidity stress (HPLC, appearance, XRPD). How it is done:
Bulk stability of (S)-4-((2-methoxyethyl)(4-(5,6,7,8-tetrahydro-1,8-naphthyridin-2-yl)butyl)amino)-2-(quinazolin-4-ylamino)butanoic acid L-tartaric acid cocrystal Pattern A was evaluated at 25° C./92.5% RH in an open container, at 40° C./75% RH in an open container, and at 60° C. in a closed container over 1 week and 4 weeks.
However, it became deliquescent after being stressed at 25° C./92.5% RH in an open container and at 40° C./75% RH in an open container after 1 week.

Experiment in series [5]: as above
As to conditions: for Bulk appearance (color change / deliquescence): Solid state, open container, 1 week.

[6] abbreviates: pH 4.5 acetate buffer (50 mM), 37° C.
Where [7] appears, read: pH 6.8 phosphate buffer (50 mM), 37° C.
The mark [8] stands for this setting: Solid state, 60° C., closed container, 1 week.

Molecules are shown by their SMILES. Structures can show the parent of a compound that is named as a salt.

For the compound `COCCN(CCCCc1ccc2c(n1)NCCC2)CC[C@H](Nc1ncnc2ccccc12)C(=O)O` [Pattern B, (S)-4-((2-methoxyethyl)(4-(5,6,7,8-tetrahydro-1,8-naphthyridin-2-yl)butyl)amino)-2-(quinazolin-4-ylamino)butanoic acid], the “water activity (a.w.) at which the pattern was obtained” value in series [1] (5° C.) and in series [1] (25° C.) was 1.0 each time.
Consider `COCCN(CCCCc1ccc2c(n1)NCCC2)CC[C@H](Nc1ncnc2ccccc12)C(=O)O` [Pattern C, (S)-4-((2-methoxyethyl)(4-(5,6,7,8-tetrahydro-1,8-naphthyridin-2-yl)butyl)amino)-2-(quinazolin-4-ylamino)butanoic acid], for which the form conversion entry in series [2] was “converts to Pattern B”.
In the case of `COCCN(CCCCc1ccc2c(n1)NCCC2)CC[C@H](Nc1ncnc2ccccc12)C(=O)O` [Phosphate salt, hydrate, (S)-4-((2-methoxyethyl)(4-(5,6,7,8-tetrahydro-1,8-naphthyridin-2-yl)butyl)amino)-2-(quinazolin-4-ylamino)butanoic acid, reference compound], the “pH of supernatant at 24 h” value is recorded as “(5.8)” in series [3] (FaSSGF, pH 1.6, 37° C.); “(5.9)” in series [3] (FaSSIF-v1, pH 6.5, 37° C.); “(5.8)” in series [3] (FeSSIF-v1, pH 5.0, 37° C.); “(5.8)” in series [3] (Water, 37° C.); “(1.6)” in series [3] (pH 1.2 HCl buffer, 37° C.); “(4.8)” in series [3] (setting [6]). In addition, the “pH of supernatant at 24 h” value in series [3] (setting [7]) is “(6.7)”. Moreover, the “Solubility (mg/ mL) 2 h” value in series [3] (FaSSGF, pH 1.6, 37° C.) was >247 mg/mL; in series [3] (FaSSIF-v1, pH 6.5, 37° C.), >213 mg/mL; in series [3] (FeSSIF-v1, pH 5.0, 37° C.), >214 mg/mL; in series [3] (Water, 37° C.), >247 mg/mL; in series [3] (pH 1.2 HCl buffer, 37° C.), >208 mg/mL; in series [3] (setting [6]) it was >228 mg/mL. Also, in series [3] (setting [7]), the “Solubility (mg/ mL) 2 h” value was >229 mg/mL. Further, the “Solubility (mg/ mL) 24 h” value in series [3] (FaSSGF, pH 1.6, 37° C.) was >247 mg/mL; in series [3] (FaSSIF-v1, pH 6.5, 37° C.) it was >214 mg/mL; in series [3] (FeSSIF-v1, pH 5.0, 37° C.), >218 mg/mL; in series [3] (Water, 37° C.), >247 mg/mL; in series [3] (pH 1.2 HCl buffer, 37° C.) it was >208 mg/mL; in series [3] (setting [6]) it was >228 mg/mL. The “Solubility (mg/ mL) 24 h” value in series [3] (setting [7]) is >229 mg/mL. Besides, the purity decrease in series [4] (25° C./92.5% RH in an open container, 4 weeks) came out at 0.6%; in series [4] (60° C. in a closed container, 4 weeks), 1.1%; in series [5] (40° C./75% RH in an open container, 4 weeks), 2.5%. Further, the physical stability entry in series [4] (60° C. in a closed container over 4 weeks) is “physically stable”. The “Bulk (HPLC) purity, 316 nm” value in series [4] (Solid state, 25° C./92.5% RH, open container, 1 week) was found to be 99.7%; in series [4] (Solid state, 25° C./92.5% RH, open container, 4 weeks) it was 99.2%; in series [4] (Solid state, 40° C./75% RH, open container, 1 week), 98.7%; in series [4] (Solid state, 40° C./75% RH, open container, 4 weeks) it was 97.3%; in series [4] (setting [8]), 99.3%; in series [4] (Solid state, 60° C., closed container, 4 weeks), 98.7%. For the same compound, the “Bulk (XRPD)” value in series [4] (setting [8]) is given as “No form change”. The “Bulk appearance (color change / deliquescence)” value in series [5] (25° C./92.5% RH) and in series [5] (40° C./75% RH) was “deliquescent” in each case.
